Results published in publication PMC4192545, “Suramin Inhibits Hsp104 ATPase and Disaggregase Activity” (PLoS ONE, 2014).
Where a name gives a salt, the structure may show the parent alone. Read-outs that look alike come from different tables or passages of the source.

Columns and labels:
[1] = biological target: T1, Hsp104 (Saccharomyces cerevisiae, UniProt P31539); assay: High-throughput Hsp104 ATPase plate assay (malachite green, 384-well); format: biochemical, yeast; conditions: for inhibition at 10 µM: read-out: % Inhibition of Hsp104 ATP hydrolysis
T1 construct: made in house; host or cells: E. coli BL21-DE3 RIL
Experimental: ATPase activity was assessed by the release of inorganic phosphate determined using a malachite green phosphate detection kit (Innova Biosciences, Cambridge, United Kingdom). Microtiter plates (384-well) were purchased from PerkinElmer (Waltham, MA). Three libraries were screened: The NIH Clinical Collection (450 small molecules), the Spectrum Collection (2,000 compounds, MicroSource, Gaylordsville, CT) and the HitFinder Collection (14,400 compounds, Maybridge).
We adapted the inorganic phosphate colorimetric assay to fit a 384-well plate format. A Ź-factor between 0.8 and 1 was calculated for the assay. A 2X Hsp104 stock solution was dispensed into each well using a Biotek microflo (Biotek Instruments, Winooski, VT). Compounds were then transferred using a Janus 96/384 Modular Dispensing Tool (PerkinElmer). Finally, a 2X ATP solution was dispensed using the Biotek microflo. Final concentrations of Hsp104 (monomer) and ATP were 0.25 µM and 1 mM respectively. Seeking to avoid the discovery of competitive inhibitors, we designed our high-throughput screen to use a 100-fold excess of ATP with respect to the test compounds (10 µM each). Final buffer conditions were 20 mM HEPES-KOH pH 7.4, 20 mM NaCl and 10 mM MgCl2. The ATPase reaction was allowed to continue for 60 min, at which time the reaction was terminated by addition of the colorimetric reagent. Absorbance was measured at 635 nm on an EnVision Xcite Multilabel plate reader (PerkinElmer). Hits were tested in duplicate. […] Ten of these were subjected to a 6-point titration (40, 13.3, 4.44, 1.45, 0.49 and 0 µM) in the absence or presence of Triton X-100, BSA, or both Triton X-100 and BSA at the specified concentrations. Heat maps were created in Excel for Mac 2011 (Microsoft Corporation) using the Conditional Formatting feature (Color Scales).
We aimed to identify small molecules capable of inhibiting Hsp104. To do so, we employed high-throughput screening using Hsp104 ATPase activity as a proxy for function. To detect changes in Hsp104 ATPase activity, we used a colorimetric assay detecting free inorganic phosphate (Pi) based on the formation of a colored complex between Pi and a dye molecule under acidic conditions, [44]. Pi is produced from the Hsp104-driven hydrolysis of ATP. The colored complex concentration, a surrogate for Pi concentration and ATPase rate, is determined by measuring the absorbance of a sample at 635 nm. We used recombinant Hsp104 purified from E. coli. An Hsp104 mutant with mutations in both NBD1 and NBD2 Walker B sequence motifs (Hsp104^DWB, carrying ATPase ablating mutations E285Q: E687Q) was used as a negative control for ATPase activity. Hsp104^WT activity results in a high A635 (high ATPase), while Hsp104^DWB activity results in a low A635 (low ATPase). We optimized the Pi colorimetric assay to fit a 384-well plate format. We selected the Hsp104 concentration (0.25 µM) on the basis of previous experience in our laboratory. The ATP concentration was selected to be in a 100-fold excess of ATP with respect to the test compounds. […] We screened 16,850 compounds from the NIH Clinical Collection as well as the Spectrum and Maybridge compound libraries. […] For instance, hexachlorophene and tannic acid inhibit Hsp104 ATPase activity by ∼80%, while Merbromin and Sennoside a inhibit by ∼20% ( Table 1 ).

[2] = biological target: T1, Hsp104; assay: Luciferase disaggregation/reactivation assay, Hsp104 with ATP:ATPγS; format: biochemical, yeast; conditions: for Normalized Luciferase Refolding Activity: 90 min 25°C, ATP:ATPγS 1:1, Figure 3A
Experimental: Luciferase reactivation was performed as described, [37]. To assemble aggregates, firefly luciferase (50 µM) in luciferase refolding buffer (LRB, 25 mM HEPES-KOH, 7.4, 150 mM KAOc, 10 mM MgAOc, 10 mM DTT) with 6 M urea was incubated at 30°C for 20 min. Luciferase was then rapidly diluted 100-fold into LRB, divided into 100 µL aliquots, snap frozen in liquid N2, and stored at −80°C. For reactivation assays, aggregated luciferase (50 nM) was incubated with Hsp104 (1 µM hexamer), plus 2.6 mM ATPγS, 2.6 mM ATP and an ATP regeneration system (1 mM creatine phosphate, 0.25 µM creatine kinase (Roche Applied Science)) for 90 minutes at 25°C. Luciferase assay system was purchased from Promega. Luciferase activity was assessed by luminescence measured on a Safire^2 microplate reader (Tecan, Männedorf, Switzerland). The half maximal inhibitory concentration (IC50) was calculating by fitting luciferase-refolding data at different Suramin concentrations with Prism (GraphPad Software, Inc., La Jolla, CA).

[3] = biological target: T2, Hsp104^WT (Saccharomyces cerevisiae, UniProt P31539); assay: Manual ATPase assay, Hsp104^WT; format: biochemical, yeast; conditions: 60 min, ATP 1 mM
T2 construct: made in house; host or cells: E. coli BL21-DE3 RIL
Experimental: Wild-type or mutant Hsp104 (0.25 µM monomer) in ATPase buffer (20 mM HEPES-KOH pH 7.4, 20 mM NaCl and 10 mM MgCl2) was incubated for 60 or 10 min at 25°C in the presence of ATP (1 mM) as noted. ATPase activity was assessed by the release of inorganic phosphate determined by using a malachite green phosphate detection kit (Innova).

[4] = tested on: Hsp104; conditions: cited from earlier work
[5] = 10 µM compound, Hsp104 0.25 µM monomer, ATP 1 mM, 60 min, mean ±S.D. (n = 2)

T1 sequence (P31539 whole entry): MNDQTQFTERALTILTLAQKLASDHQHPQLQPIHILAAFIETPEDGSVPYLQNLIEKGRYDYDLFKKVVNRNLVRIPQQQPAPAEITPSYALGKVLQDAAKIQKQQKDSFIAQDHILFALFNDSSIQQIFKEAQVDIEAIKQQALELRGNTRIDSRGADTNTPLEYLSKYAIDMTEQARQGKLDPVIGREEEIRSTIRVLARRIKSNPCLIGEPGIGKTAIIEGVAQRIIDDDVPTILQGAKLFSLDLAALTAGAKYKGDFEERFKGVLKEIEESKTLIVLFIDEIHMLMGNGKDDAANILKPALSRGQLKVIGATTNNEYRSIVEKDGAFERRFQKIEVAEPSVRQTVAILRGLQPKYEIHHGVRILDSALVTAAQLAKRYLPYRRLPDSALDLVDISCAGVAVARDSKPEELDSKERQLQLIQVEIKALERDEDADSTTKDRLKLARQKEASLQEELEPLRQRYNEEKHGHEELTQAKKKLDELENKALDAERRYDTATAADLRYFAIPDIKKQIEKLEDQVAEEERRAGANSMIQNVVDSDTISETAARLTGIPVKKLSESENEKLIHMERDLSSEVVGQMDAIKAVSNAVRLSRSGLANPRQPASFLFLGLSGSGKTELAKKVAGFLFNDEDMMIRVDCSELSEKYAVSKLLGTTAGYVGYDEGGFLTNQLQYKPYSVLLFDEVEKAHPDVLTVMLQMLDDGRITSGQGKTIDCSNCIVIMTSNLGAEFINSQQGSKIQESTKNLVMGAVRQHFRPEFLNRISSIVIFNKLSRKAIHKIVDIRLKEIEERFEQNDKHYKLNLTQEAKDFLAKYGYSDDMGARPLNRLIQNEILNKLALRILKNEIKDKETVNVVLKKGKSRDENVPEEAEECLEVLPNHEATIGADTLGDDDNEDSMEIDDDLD
T2 sequence (P31539 whole entry): as above

Row | Compound | % Inhibition of Hsp104 ATP hydrolysis [1, 5] [%] | inhibition at 10 µM [1, 5] [%] | further results
1 | O=C1C=C2CC3(O)COc4c(ccc(O)c4O)C3=C2C=C1O (centres unmarked) [Hematein] |  |  | inhibition at 10 µM [1]: 45.7 ± 5.95%
2 | Sucralfate Sodium | 25.67±2.59 |  | 
3 | Oc1c(Cl)cc(Cl)c(Cl)c1Cc1c(O)c(Cl)cc(Cl)c1Cl [Hexachlorophene] | 80.21±1.00 | ~80 | 
4 | Cc1cc2c(C(C)C)c(O)c(O)c(C=O)c2c(O)c1-c1c(C)cc2c(C(C)C)c(O)c(O)c(C=O)c2c1O [Gossypol] |  |  | inhibition at 10 µM [1]: 42.3 ± 4.83%
5 | O=C([O-])c1ccccc1-c1c2cc(Br)c(=O)cc-2oc2[c]([Hg+])c([O-])c(Br)cc12.[Na+].[Na+].[OH-] [Merbromin] | 21.17±3.54 |  | 
6 | Chlorophyllide Cu Complex Na Salt | 33.79±2.18 |  | 
7 | O=C(Oc1cc(O)cc2c1C[C@@H](OC(=O)c1cc(O)c(O)c(O)c1)[C@@H](c1cc(O)c(O)c(O)c1)O2)c1cc(O)c(O)c(O)c1 [Epigallocatechin 3,5-digallate] |  | 21.9 ± 2.53 | 
8 | CC(=O)O.Cc1cc2c(C(C)C)c(O)c(O)c(C=O)c2c(O)c1-c1c(C)cc2c(C(C)C)c(O)c(O)c(C=O)c2c1O [Gossypol-acetic acid complex] | 47.92±1.30 |  | 
9 | C=C1c2cccc(O)c2C(=O)C2=C(O)[C@]3(O)C(=O)C(C(N)=O)=C(O)[C@@H](N(C)C)[C@@H]3[C@@H](O)[C@H]12 [Methacycline hydrochloride] |  | 33.3 ± 2.12 | 
10 | Cl.N=C(N)N [GdmCl, guanidinium hydrochloride] |  |  | Concentration needed to elicit the same level of inhibition as 100 µM Suramin (complete ablation of luciferase refolding) ([2]; ATP:ATPγS 1:1): 5 mM; Normalized Luciferase Refolding Activity ([2]; GdmCl 1 mM): 0.07; Normalized Luciferase Refolding Activity ([2]; GdmCl 5 mM): 0.01; Normalized Luciferase Refolding Activity ([2]; GdmCl 10 mM): 0.01; Normalized Luciferase Refolding Activity ([2]; GdmCl 20 mM): 0.01; Effect on luciferase reactivation activity of Hsp104 ([2]; all concentrations of GdmCl tested (1-20 mM)): very strongly inhibited the luciferase reactivation activity of Hsp104; Effect on Hsp104 ATPase activity, manual assay ([3]; 30 mM (highest concentration tested)): only very mildly inhibited Hsp104 ATPase activity; Hsp104 ATPase activity remaining ([4]; GdmCl 100 mM): large fraction of Hsp104 ATPase activity remained; Effective concentration for inhibition of Hsp104 activity [4]: effective at millimolar concentrations
11 | N.N.[Cl][Pt][Cl] [Cisplatin, cis-diamminedichloroplatinum (II)] | 76.58±1.06 |  | Inhibition of Hsp104 ATPase activity in the presence of both Triton X-100 and BSA ([1]; titration 40-0.49 µM, 60 min, Triton X-100 and BSA, heat map Figure 1A): most significantly inhibit Hsp104 ATPase activity; Effect on Hsp104 ATPase activity (Pi produced), manual assay ([3]; varying concentrations, Figure 2A): unable to replicate the inhibitory effect of Cisplatin outside of the 384-well format
12 | O=C(O)c1cc(O)c2c(c1)[C@H]([C@H]1c3cc(C(=O)O)cc(O)c3C(=O)c3c(O[C@@H]4O[C@H](CO)[C@@H](O)[C@H](O)[C@H]4O)cccc31)c1cccc(O[C@@H]3O[C@H](CO)[C@@H](O)[C@H](O)[C@H]3O)c1C2=O [Sennoside a] | 19.92±7.07 | ~20 | 
13 | O=C(O)C1=CC(=C(c2ccc(O)c(C(=O)O)c2)c2ccc(O)c(C(=O)O)c2)C=CC1=O [Aurin tricarboxylic acid] |  | 24.2 ± 1.41 | 
14 | N.N.O=C([O-])C1(C(=O)[O-])CCC1.[Pt+2] [Carboplatin] | 73.75±1.41 |  | 
15 | Tannic acid | 79.79±0.29 |  | % Inhibition of Hsp104 ATP hydrolysis ([1]; 10 µM compound, Hsp104 0.25 µM monomer, ATP 1 mM, 60 min, mean ±S.D. (n = 2), listed as tannic acid): ~80%
16 | O=C(O[C@@H]1Cc2c(O)cc(O)cc2O[C@@H]1c1cc(O)c(=O)c2c(O)c(O)cc([C@H]3Oc4cc(O)cc(O)c4C[C@H]3O)c2c1)c1cc(O)c(O)c(O)c1 [Theaflavin monogallates] |  | 57.2 ± 7.19 | 
